Experimental data: publication PMC8765435, “In Vitro Antimalarial Activity of Inhibitors of the Human GTPase Rac1” (Antimicrobial Agents and Chemotherapy, 2022)

Columns and labels:
[1] = test system: P. falciparum asexual parasites, chloroquine-resistant W2 strain; assay: Drug susceptibility assay (pLDH), asexual parasites, W2 strain; format: cell-based, Plasmodium falciparum; details: Plasmodium falciparum, W2, chloroquine-resistant W2 strain; read-out: IC50, W2 strain
Protocol: Chloroquine (CQ)-sensitive (D10, wild-type 3D7, or transgenic 3D7elo1-pfs16-CBG99) and CQ-resistant (W2) strains of P. falciparum were cultured as described previously ([58]), with slight modifications, as detailed in the supplemental material.
Asexual parasite growth was determined spectrophotometrically (optical density at 650 nm [OD650]) by measuring the activity of parasite lactate dehydrogenase (pLDH), according to a modified version of the method of Makler et al. ([59]). Gametocyte viability was measured by a luminescence method described previously ([60]). Details for the two methods are reported in the supplemental material. From either the OD or ALU (arbitrary luminescence units), the percentages of viability were calculated according to the formula 100 × (treated sample signal − blank signal)/(untreated control signal − blank signal). The blank for the pLDH assay was uninfected RBCs at the same hematocrit as that of parasitized RBCs, and the blank for the luminescence assay was parasites treated with a high dose of methylene blue. […]
The CQ-sensitive (D10) and the CQ-resistant (W2) strains were maintained at 5% hematocrit […]
supplemented with 1% AlbuMaxII (lipid-rich bovine serum albumin) (Invitrogen), 0.01% hypoxantine (Sigma), 20mM Hepes (EuroClone), 2 mM glutamine (EuroClone). […]
In vitro P. falciparum drug susceptibility assay […]
plate were transferred to a plate containing 100µl of Malstat reagent (0.11% [vol/vol] Triton- […]
dinucleotide [APAD] [Sigma-Aldrich], adjusted to pH 9 with 1 M HCl) and 25 µl of PES/NBT […]
pLDHassay. The plate was read at a wavelength of 650 nm using a microplate reader, Synergy4 […]
Uninfected RBC at the same HCT than parasites were used as blank. […]

[2] = set-up: method as in PMID 25389450, PMID 25594952; details: mice, orally, 25 mg/kg three times a week for 55 days; cited from earlier work
[3] = test system: Rac1; set-up: method as in PMID 22383527; details: Rac1 activity in MDA-MB-435 melanoma cells; cited from earlier work
[4] = test system: P. falciparum W2 asexual parasites; assay: Association experiments (isobologram), W2 parasites; format: cell-based, Plasmodium falciparum; details: in combination with 1A116, W2 parasites
Protocol: The effect of 1A116 on the IC50 of EHop-016 was determined by potentiation tests as previously described ([62]). Isobolograms were created by plotting a pair of fractional IC50s for each combination of EHop-016 and 1A116. […] The corresponding 1A116 fractional IC50s were calculated by dividing each fixed concentration by the IC50 of 1A116 alone and plotted on the vertical axis.

[5] = biological target: Rac1 (Homo sapiens, UniProt P63000); assay: G-LISA Rac1 activation assay in uninfected erythrocytes; format: cell-based; set-up: endogenous in cells; host or cells: erythrocytes from whole blood of 7 donors; details: 2.5 μM, 2 h
Protocol: Whole blood collected from 7 donors was washed in RPMI 1640 four times to remove plasma, platelets, and leukocytes. The number of erythrocytes was determined by using a cell counting chamber. Erythrocytes were incubated for 2 h at 37°C with or without 2.5 μM EHop-016 and then washed. In each sample, the Rac1 activation state was measured with the G-LISA Rac1 activation assay luminescence-based biochemical kit (Cytoskeleton). Luminescence intensity was assessed with a BioTek Synergy HT plate reader. These experiments were performed in three biological replicates.

[6] = test system: HMEC-1 human microvascular endothelial cells; assay: Cell cytotoxicity MTT assay; format: cell-based
Protocol: Cytotoxicity was evaluated on human microvascular endothelial cells (HMEC-1) as detailed in the supplemental material. […] Plates were then read on a microplate reader (Synergy 4; BioTek) at a wavelength of 550 nm (reference, 650 nm). […] All tests were performed in duplicate at least three times.
The selectivity index (SI) is the ratio between the cytotoxic IC50 value against HMEC-1 cells and the parasitic IC50 value against the D10 strain and indicates the compound selectivity for the parasite.
Cytotoxicity was evaluated on Human Microvascular Endothelial Cells (HMEC-1) maintained
and 2 mM L-glutamine. Cells were seeded in 96 well flat bottom tissue culture clusters (1.5x104
cells/well), let adhere overnight and treated with serial dilutions of test compounds . […]

[7] = test system: P. falciparum intraerythrocytic parasites; assay: Parasite intraerythrocytic growth (Giemsa smears); format: cell-based, Plasmodium falciparum; details: 1.4 μM
Protocol: A culture of erythrocytes freshly invaded by P. falciparum parasites was set up as previously described ([17]). Parasites were exposed to 1.4 μM EHop-016, and an untreated control was set up. Blood smears were taken at 20, 27, and 39 hpi, corresponding to late ring, trophozoite, and schizont stages, and then Giemsa stained and counted by optical microscopy in order to assess parasitemia. Pictures of the blood smears were taken with a Leica ICC50W camera. These experiments were performed in three biological replicates.

CCn1c2ccccc2c2cc(Nc3ccnc(NCCCN4CCOCC4)n3)ccc21 [EHop-016]
IC50 [1]: 0.322 ± 0.0285 µM
changes in weight or behavior [2]: did not cause any significant changes in weight or behavior
IC50 [3]: 1.1 µM
effect of combination (isobologram analysis) [4]: additive effect
fractional inhibitory concentration (FIC) [4]: < 2
levels of active Rac1 in noninfected erythrocytes [5]: does not inhibit Rac1 in noninfected erythrocytes
IC50 ([6]; Homo sapiens, HMEC-1, MTT, 72 h, read-out: Mean HMEC-1 IC50 ± SD): 5.22 ± 1.07 µM
SI (selectivity index) ([6]; ratio IC50 against HMEC-1 cells / IC50 against D10 asexual parasites): 37.8
parasitemia compared to untreated control ([7]; 20, 27 and 39 hpi): significant, time-dependent reduction in parasitemia
parasite developmental process ([7]; up to 39 hpi): complete block of the developmental process
